Tests used:
Format in all cases: functional
Conditions in all cases: read-out: Activity
SNB-75 = test: Cytotoxicity against human SNB-75 cells assessed as cell viability at 10 uM incubated for 48 hrs by sulforhodamine B assay relative to control
T47D = test: Cytotoxicity against human T47D cells assessed as cell viability at 10 uM incubated for 48 hrs by sulforhodamine B assay relative to control
SF-268 = test: Cytotoxicity against human SF-268 cells assessed as cell viability at 10 uM incubated for 48 hrs by sulforhodamine B assay relative to control
COLO 205 = test: Cytotoxicity against human COLO 205 cells assessed as cell viability at 10 uM incubated for 48 hrs by sulforhodamine B assay relative to control
ACHN = test: Cytotoxicity against human ACHN cells assessed as cell viability at 10 uM incubated for 48 hrs by sulforhodamine B assay relative to control
MDA-MB-468 = test: Cytotoxicity against human MDA-MB-468 cells assessed as cell viability at 10 uM incubated for 48 hrs by sulforhodamine B assay relative to control
CAKI-1 = test: Cytotoxicity against human CAKI-1 cells assessed as cell viability at 10 uM incubated for 48 hrs by sulforhodamine B assay relative to control
HOP-62 = test: Cytotoxicity against human HOP-62 cells assessed as cell viability at 10 uM incubated for 48 hrs by sulforhodamine B assay relative to control
K562 = test: Cytotoxicity against human K562 cells assessed as cell viability at 10 uM incubated for 48 hrs by sulforhodamine B assay relative to control
SNB-19 = test: Cytotoxicity against human SNB-19 cells assessed as cell viability at 10 uM incubated for 48 hrs by sulforhodamine B assay relative to control
SR = test: Cytotoxicity against human SR cells assessed as cell viability at 10 uM incubated for 48 hrs by sulforhodamine B assay relative to control
NCI-H522 = test: Cytotoxicity against human NCI-H522 cells assessed as cell viability at 10 uM incubated for 48 hrs by sulforhodamine B assay relative to control
HCT-29 = test: Cytotoxicity against human […] cells assessed as cell viability at 10 uM incubated for 48 hrs by sulforhodamine B assay relative to control
SN12C = test: Cytotoxicity against human SN12C cells assessed as cell viability at 10 uM incubated for 48 hrs by sulforhodamine B assay relative to control
NCI-H226 = test: Cytotoxicity against human NCI-H226 cells assessed as cell viability at 10 uM incubated for 48 hrs by sulforhodamine B assay relative to control
SK-MEL-28 = test: Cytotoxicity against human SK-MEL-28 cells assessed as cell viability at 10 uM incubated for 48 hrs by sulforhodamine B assay relative to control
UO-31 = test: Cytotoxicity against human UO-31 cells assessed as cell viability at 10 uM incubated for 48 hrs by sulforhodamine B assay relative to control
NCI-H322M = test: Cytotoxicity against human NCI-H322M cells assessed as cell viability at 10 uM incubated for 48 hrs by sulforhodamine B assay relative to control
HCT-116 = test: Cytotoxicity against human HCT-116 cells assessed as cell viability at 10 uM incubated for 48 hrs by sulforhodamine B assay relative to control
NCI-H460 = test: Cytotoxicity against human NCI-H460 cells assessed as cell viability at 10 uM incubated for 48 hrs by sulforhodamine B assay relative to control
EKVX = test: Cytotoxicity against human EKVX cells assessed as cell viability at 10 uM incubated for 48 hrs by sulforhodamine B assay relative to control
MDA-MB-231 = test: Cytotoxicity against human MDA-MB-231 cells assessed as cell viability at 10 uM incubated for 48 hrs by sulforhodamine B assay relative to control
NCI-H23 = test: Cytotoxicity against human NCI-H23 cells assessed as cell viability at 10 uM incubated for 48 hrs by sulforhodamine B assay relative to control
MCF7 = test: Cytotoxicity against human MCF7 cells assessed as cell viability at 10 uM incubated for 48 hrs by sulforhodamine B assay relative to control
RPMI-8226 = test: Cytotoxicity against human RPMI-8226 cells assessed as cell viability at 10 uM incubated for 48 hrs by sulforhodamine B assay relative to control
HCT-15 = test: Cytotoxicity against human HCT-15 cells assessed as cell viability at 10 uM incubated for 48 hrs by sulforhodamine B assay relative to control
UACC-257 = test: Cytotoxicity against human UACC-257 cells assessed as cell viability at 10 uM incubated for 48 hrs by sulforhodamine B assay relative to control
SK-OV-3 = test: Cytotoxicity against human SK-OV-3 cells assessed as cell viability at 10 uM incubated for 48 hrs by sulforhodamine B assay relative to control
LOX IMVI = test: Cytotoxicity against human LOX IMVI cells assessed as cell viability at 10 uM incubated for 48 hrs by sulforhodamine B assay relative to control
MOLT-4 = test: Cytotoxicity against human MOLT-4 cells assessed as cell viability at 10 uM incubated for 48 hrs by sulforhodamine B assay relative to control
IGROV-1 = test: Cytotoxicity against human IGROV-1 cells assessed as cell viability at 10 uM incubated for 48 hrs by sulforhodamine B assay relative to control
UACC-62 = test: Cytotoxicity against human UACC-62 cells assessed as cell viability at 10 uM incubated for 48 hrs by sulforhodamine B assay relative to control
DU-145 = test: Cytotoxicity against human DU-145 cells assessed as cell viability at 10 uM incubated for 48 hrs by sulforhodamine B assay relative to control
A549 = test: Cytotoxicity against human A549 cells assessed as cell viability at 10 uM incubated for 48 hrs by sulforhodamine B assay relative to control
CCRF-CEM = test: Cytotoxicity against human CCRF-CEM cells assessed as cell viability at 10 uM incubated for 48 hrs by sulforhodamine B assay relative to control
SK-MEL-2 = test: Cytotoxicity against human SK-MEL-2 cells assessed as cell viability at 10 uM incubated for 48 hrs by sulforhodamine B assay relative to control
HOP-92 = test: Cytotoxicity against human HOP-92 cells assessed as cell viability at 10 uM incubated for 48 hrs by sulforhodamine B assay relative to control
KM12 = test: Cytotoxicity against human KM12 cells assessed as cell viability at 10 uM incubated for 48 hrs by sulforhodamine B assay relative to control
SW-620 = test: Cytotoxicity against human SW-620 cells assessed as cell viability at 10 uM incubated for 48 hrs by sulforhodamine B assay relative to control
HCC 2998 = test: Cytotoxicity against human HCC 2998 cells assessed as cell viability at 10 uM incubated for 48 hrs by sulforhodamine B assay relative to control
SK-MEL-5 = test: Cytotoxicity against human SK-MEL-5 cells assessed as cell viability at 10 uM incubated for 48 hrs by sulforhodamine B assay relative to control

## O=S(=O)(NCCNc1nccc(-c2c(-c3cccc(F)c3)nc3sccn23)n1)c1cccc2ccccc12
SNB-75
  viability at 10 µM: 92.3%
T47D
  viability at 10 µM: 81.7%
SF-268
  viability at 10 µM: 85.6%
COLO 205
  viability at 10 µM: 85%
ACHN
  viability at 10 µM: 80.1%
MDA-MB-468
  viability at 10 µM: 86.1%
CAKI-1
  viability at 10 µM: 77.5%
HOP-62
  viability at 10 µM: 110%
K562
  viability at 10 µM: 78.3%
SNB-19
  viability at 10 µM: 96.2%
SR
  viability at 10 µM: 88.1%
NCI-H522
  viability at 10 µM: 95.5%
HCT-29
  viability at 10 µM: 83.2%
SN12C
  viability at 10 µM: 97.1%
NCI-H226
  viability at 10 µM: 94.1%
SK-MEL-28
  viability at 10 µM: 123%
UO-31
  viability at 10 µM: 59.2%
NCI-H322M
  viability at 10 µM: 104%
HCT-116
  viability at 10 µM: 84.6%
NCI-H460
  viability at 10 µM: 97.7%
EKVX
  viability at 10 µM: 93.9%
MDA-MB-231
  viability at 10 µM: 95%
NCI-H23
  viability at 10 µM: 99.9%
MCF7
  viability at 10 µM: 74.6%
RPMI-8226
  viability at 10 µM: 83.9%
HCT-15
  viability at 10 µM: 83.6%
UACC-257
  viability at 10 µM: 107%
SK-OV-3
  viability at 10 µM: 98.5%
LOX IMVI
  viability at 10 µM: 95.7%
MOLT-4
  viability at 10 µM: 73.7%
IGROV-1
  viability at 10 µM: 61%
UACC-62
  viability at 10 µM: 91.8%
DU-145
  viability at 10 µM: 97.8%
A549
  viability at 10 µM: 88%
CCRF-CEM
  viability at 10 µM: 93.9%
SK-MEL-2
  viability at 10 µM: 104%
HOP-92
  viability at 10 µM: 91.2%
KM12
  viability at 10 µM: 85%
SW-620
  viability at 10 µM: 115%
HCC 2998
  viability at 10 µM: 131%
SK-MEL-5
  viability at 10 µM: 88.3%

## O=C(NCCCNc1nccc(-c2c(-c3cccc(F)c3)nc3sccn23)n1)c1ccc(C(F)(F)F)cc1
SNB-75
  viability at 10 µM: 82.6%
T47D
  viability at 10 µM: 62.6%
SF-268
  viability at 10 µM: 67.8%
COLO 205
  viability at 10 µM: 74.8%
ACHN
  viability at 10 µM: 64.5%
MDA-MB-468
  viability at 10 µM: 76.6%
CAKI-1
  viability at 10 µM: 62.5%
HOP-62
  viability at 10 µM: 124%
K562
  viability at 10 µM: 66.7%
SNB-19
  viability at 10 µM: 87.6%
SR
  viability at 10 µM: 86.8%
NCI-H522
  viability at 10 µM: 90.3%
HCT-29
  viability at 10 µM: 53.8%
SN12C
  viability at 10 µM: 80.1%
NCI-H226
  viability at 10 µM: 78.8%
SK-MEL-28
  viability at 10 µM: 96.2%
UO-31
  viability at 10 µM: 35.3%
NCI-H322M
  viability at 10 µM: 90.3%
HCT-116
  viability at 10 µM: 66.7%
NCI-H460
  viability at 10 µM: 92.1%
EKVX
  viability at 10 µM: 72.2%
MDA-MB-231
  viability at 10 µM: 89.1%
NCI-H23
  viability at 10 µM: 95.5%
MCF7
  viability at 10 µM: 69.7%
RPMI-8226
  viability at 10 µM: 96.8%
HCT-15
  viability at 10 µM: 54.2%
UACC-257
  viability at 10 µM: 106%
SK-OV-3
  viability at 10 µM: 69%
LOX IMVI
  viability at 10 µM: 82.6%
MOLT-4
  viability at 10 µM: 44.8%
IGROV-1
  viability at 10 µM: 41.8%
UACC-62
  viability at 10 µM: 69.6%
DU-145
  viability at 10 µM: 81.3%
A549
  viability at 10 µM: 69%
CCRF-CEM
  viability at 10 µM: 89.1%
SK-MEL-2
  viability at 10 µM: 98.8%
HOP-92
  viability at 10 µM: 93.6%
KM12
  viability at 10 µM: 85.4%
SW-620
  viability at 10 µM: 111%
HCC 2998
  viability at 10 µM: 112%
SK-MEL-5
  viability at 10 µM: 75.3%

## O=C(NCCCNc1nccc(-c2c(-c3cccc(F)c3)nc3sccn23)n1)C1CCCCC1
SNB-75
  viability at 10 µM: 87.7%
T47D
  viability at 10 µM: 37.8%
SF-268
  viability at 10 µM: 80.2%
COLO 205
  viability at 10 µM: 49.8%
ACHN
  viability at 10 µM: 45.3%
MDA-MB-468
  viability at 10 µM: 74.3%
CAKI-1
  viability at 10 µM: 55.7%
HOP-62
  viability at 10 µM: 98.2%
K562
  viability at 10 µM: 65.4%
SNB-19
  viability at 10 µM: 89.8%
SR
  viability at 10 µM: 70.2%
NCI-H522
  viability at 10 µM: 77.6%
HCT-29
  viability at 10 µM: 40.1%
SN12C
  viability at 10 µM: 67.3%
NCI-H226
  viability at 10 µM: 63.6%
SK-MEL-28
  viability at 10 µM: 84.5%
UO-31
  viability at 10 µM: 41%
NCI-H322M
  viability at 10 µM: 86%
HCT-116
  viability at 10 µM: 49.3%
NCI-H460
  viability at 10 µM: 60%
EKVX
  viability at 10 µM: 80.8%
MDA-MB-231
  viability at 10 µM: 80.6%
NCI-H23
  viability at 10 µM: 75.7%
MCF7
  viability at 10 µM: 36.5%
RPMI-8226
  viability at 10 µM: 80%
HCT-15
  viability at 10 µM: 58%
UACC-257
  viability at 10 µM: 95.2%
SK-OV-3
  viability at 10 µM: 87.7%
LOX IMVI
  viability at 10 µM: 57.4%
MOLT-4
  viability at 10 µM: 69.5%
IGROV-1
  viability at 10 µM: 37.5%
UACC-62
  viability at 10 µM: 36.4%
DU-145
  viability at 10 µM: 92.2%
A549
  viability at 10 µM: 51.6%
CCRF-CEM
  viability at 10 µM: 73.2%
SK-MEL-2
  viability at 10 µM: 78.4%
HOP-92
  viability at 10 µM: 105%
KM12
  viability at 10 µM: 84.5%
SW-620
  viability at 10 µM: 82.1%
HCC 2998
  viability at 10 µM: 90.5%
SK-MEL-5
  viability at 10 µM: 52.9%
